Where “and” joins values, the source holds several entries; their conditions need not be identical. Equal values may be shown once. Toxic doses and inconclusive results are not listed.
Test system: L1210 leukemia ip in BDF1 mice, survival T/C
Test: NCI In Vivo Anticancer Drug Screen. Data for tumor model L1210 Leukemia (intraperitoneal) in B6D2F1 (BDF1) mice
Conditions: endpoint: mean survival time, higher = longer survival
Outline: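 Each compound was tested against a transplantable tumor grown in mice. The endpoint was survival, with treated animals benchmarked against vehicle controls as a simple ratio.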

[1] = dose: 100.0 mg/kg/injection, schedule: Q04DX003 (ip), vehicle: Klucel (hydroxypropylcellulose) (HPC)
[2] = dose: 200.0 mg/kg/injection, schedule: Q04DX003 (ip), vehicle: Klucel (hydroxypropylcellulose) (HPC)

Cc1c(C)c2c(c(C)c1O)CCC(=O)O2
T/C (dose: 100.0 mg/kg/injection, schedule: Q04DX003 (ip), vehicle: saline with Tween-80): 91 % of control
T/C (dose: 200.0 mg/kg/injection, schedule: Q04DX003 (ip), vehicle: saline with Tween-80): 92 % of control
T/C (dose: 400.0 mg/kg/injection, schedule: Q04DX003 (ip), vehicle: saline with Tween-80): 94 % of control

O=C(CN1C(=O)c2ccccc2C1=O)c1cccc(Br)c1
T/C (dose: 100.0 mg/kg/injection, schedule: Q01DX001 (ip), vehicle: saline): 95 % of control
T/C (dose: 200.0 mg/kg/injection, schedule: Q01DX001 (ip), vehicle: saline): 104 % of control
T/C (dose: 400.0 mg/kg/injection, schedule: Q01DX001 (ip), vehicle: saline): 103 % of control

CCOC(=O)C(C(=O)OCC)C1c2ccccc2NC(=O)c2ccccc21 (stereo not drawn)
T/C (dose: 100.0 mg/kg/injection, schedule: Q01DX009 (ip), vehicle: Klucel (hydroxypropylcellulose) (HPC)): 100 % of control
T/C [1]: 90 % of control
T/C (dose: 200.0 mg/kg/injection, schedule: Q01DX009 (ip), vehicle: Klucel (hydroxypropylcellulose) (HPC)): 100 % of control
T/C [2]: 90 % of control
T/C (dose: 400.0 mg/kg/injection, schedule: Q01DX009 (ip), vehicle: Klucel (hydroxypropylcellulose) (HPC)): 91 % of control
T/C (dose: 400.0 mg/kg/injection, schedule: Q04DX003 (ip), vehicle: Klucel (hydroxypropylcellulose) (HPC)): 88 % of control

CCOCC(C#N)C#N
T/C (dose: 6.25 mg/kg/injection, schedule: Q01DX009 (ip), vehicle: saline): 94 % of control
T/C (dose: 6.25 mg/kg/injection, schedule: Q04DX003 (ip), vehicle: saline): 96 % of control
T/C (dose: 12.5 mg/kg/injection, schedule: Q01DX009 (ip), vehicle: saline): 92 % of control
T/C (dose: 12.5 mg/kg/injection, schedule: Q04DX003 (ip), vehicle: saline): 106 % of control
T/C (dose: 25.0 mg/kg/injection, schedule: Q04DX003 (ip), vehicle: saline): 99 % of control

COc1cc2c(c(OC)c1OC)-c1ccc(=O)c(N)cc1C(NC(C)=O)CC2 (stereo not drawn)
T/C (dose: 1.8 mg/kg/injection, schedule: Q01DX Z (ip), vehicle: carboxymethylcellulose (CMC)): 97 % of control
T/C (dose: 3.7 mg/kg/injection, schedule: Q01DX Z (ip), vehicle: carboxymethylcellulose (CMC)): 101 % of control
T/C (dose: 7.5 mg/kg/injection, schedule: Q01DX Z (ip), vehicle: carboxymethylcellulose (CMC)): 105 % of control
T/C (dose: 15.0 mg/kg/injection, schedule: Q01DX Z (ip), vehicle: carboxymethylcellulose (CMC)): 105 % of control
T/C (dose: 30.0 mg/kg/injection, schedule: Q01DX Z (ip), vehicle: carboxymethylcellulose (CMC)): 110 % of control and 112 % of control
T/C (dose: 60.0 mg/kg/injection, schedule: Q01DX Z (ip), vehicle: carboxymethylcellulose (CMC)): 114 % of control and 122 % of control
T/C (dose: 240.0 mg/kg/injection, schedule: Q01DX Z (ip), vehicle: carboxymethylcellulose (CMC)): 121 % of control

Cc1cc(N=NC(=N)N)ccc1NN=C(N)N
T/C (dose: 37.5 mg/kg/injection, schedule: Q01DX Z (oral), vehicle: carboxymethylcellulose (CMC)): 115 % of control
T/C (dose: 75.0 mg/kg/injection, schedule: Q01DX Z (oral), vehicle: carboxymethylcellulose (CMC)): 100 % of control
T/C (dose: 150.0 mg/kg/injection, schedule: Q01DX Z (oral), vehicle: carboxymethylcellulose (CMC)): 96 % of control
T/C (dose: 300.0 mg/kg/injection, schedule: Q01DX Z (oral), vehicle: carboxymethylcellulose (CMC)): 102 % of control

NC(=O)Nc1ccc(/C=C2\C=Cc3ccccc32)cc1
T/C (dose: 75.0 mg/kg/injection, schedule: Q01DX001 (ip), vehicle: saline): 96 % of control
T/C (dose: 150.0 mg/kg/injection, schedule: Q01DX001 (ip), vehicle: saline): 93 % of control
T/C (dose: 300.0 mg/kg/injection, schedule: Q01DX001 (ip), vehicle: saline): 94 % of control

OCC1OC(n2cnc3c2ncn2ccnc32)C(O)C1O (stereo not drawn)
T/C (dose: 6.25 mg/kg/injection, schedule: Q03HX024 (ip), vehicle: saline): 98 % of control
T/C (dose: 12.5 mg/kg/injection, schedule: Q03HX024 (ip), vehicle: saline): 93 % of control
T/C (dose: 12.5 mg/kg/injection, schedule: Q04DX002 (ip), vehicle: saline): 93 % of control
T/C (dose: 25.0 mg/kg/injection, schedule: Q03HX024 (ip), vehicle: saline): 95 % of control
T/C (dose: 25.0 mg/kg/injection, schedule: Q04DX002 (ip), vehicle: saline): 97 % of control
T/C (dose: 50.0 mg/kg/injection, schedule: Q03HX024 (ip), vehicle: saline): 92 % of control
T/C (dose: 50.0 mg/kg/injection, schedule: Q04DX002 (ip), vehicle: saline): 179 % of control
T/C (dose: 100.0 mg/kg/injection, schedule: Q01DX005 (ip), vehicle: saline): 101 % of control
T/C (dose: 100.0 mg/kg/injection, schedule: Q01DX009 (ip), vehicle: saline): 107 % of control
T/C (dose: 100.0 mg/kg/injection, schedule: Q03HX024 (ip), vehicle: saline): 87 % of control
T/C (dose: 200.0 mg/kg/injection, schedule: Q01DX005 (ip), vehicle: saline): 107 % of control
T/C (dose: 200.0 mg/kg/injection, schedule: Q01DX009 (ip), vehicle: saline): 89 % of control
T/C (dose: 200.0 mg/kg/injection, schedule: Q03HX024 (ip), vehicle: saline): 88 % of control
T/C (dose: 400.0 mg/kg/injection, schedule: Q01DX009 (ip), vehicle: saline): 104 % of control

CCOC(=O)C(O)(C(=O)OCC)C1C(=O)c2ccccc2C1=O
T/C (dose: 50.0 mg/kg/injection, schedule: Q04DX003 (ip), vehicle: Klucel (hydroxypropylcellulose) (HPC)): 91 % of control
T/C [1]: 98 % of control
T/C [2]: 99 % of control

From PubChem BioAssay AID248 (DTP/NCI, 2004)
